The text below walks through data of US20190389850A1, “COMPOUNDS” (GLAXOSMITHKLINE INTELLECTUAL PROPERTY DEVELOPMENT LIMITED, priority 2017, published 2019).

Each structure is given as a SMILES string. Several values for one entry are separate records, joined by “and”; a condition that tells them apart may be missing. Equal values may be shown once.

T1 sequence (Q5S007 whole entry): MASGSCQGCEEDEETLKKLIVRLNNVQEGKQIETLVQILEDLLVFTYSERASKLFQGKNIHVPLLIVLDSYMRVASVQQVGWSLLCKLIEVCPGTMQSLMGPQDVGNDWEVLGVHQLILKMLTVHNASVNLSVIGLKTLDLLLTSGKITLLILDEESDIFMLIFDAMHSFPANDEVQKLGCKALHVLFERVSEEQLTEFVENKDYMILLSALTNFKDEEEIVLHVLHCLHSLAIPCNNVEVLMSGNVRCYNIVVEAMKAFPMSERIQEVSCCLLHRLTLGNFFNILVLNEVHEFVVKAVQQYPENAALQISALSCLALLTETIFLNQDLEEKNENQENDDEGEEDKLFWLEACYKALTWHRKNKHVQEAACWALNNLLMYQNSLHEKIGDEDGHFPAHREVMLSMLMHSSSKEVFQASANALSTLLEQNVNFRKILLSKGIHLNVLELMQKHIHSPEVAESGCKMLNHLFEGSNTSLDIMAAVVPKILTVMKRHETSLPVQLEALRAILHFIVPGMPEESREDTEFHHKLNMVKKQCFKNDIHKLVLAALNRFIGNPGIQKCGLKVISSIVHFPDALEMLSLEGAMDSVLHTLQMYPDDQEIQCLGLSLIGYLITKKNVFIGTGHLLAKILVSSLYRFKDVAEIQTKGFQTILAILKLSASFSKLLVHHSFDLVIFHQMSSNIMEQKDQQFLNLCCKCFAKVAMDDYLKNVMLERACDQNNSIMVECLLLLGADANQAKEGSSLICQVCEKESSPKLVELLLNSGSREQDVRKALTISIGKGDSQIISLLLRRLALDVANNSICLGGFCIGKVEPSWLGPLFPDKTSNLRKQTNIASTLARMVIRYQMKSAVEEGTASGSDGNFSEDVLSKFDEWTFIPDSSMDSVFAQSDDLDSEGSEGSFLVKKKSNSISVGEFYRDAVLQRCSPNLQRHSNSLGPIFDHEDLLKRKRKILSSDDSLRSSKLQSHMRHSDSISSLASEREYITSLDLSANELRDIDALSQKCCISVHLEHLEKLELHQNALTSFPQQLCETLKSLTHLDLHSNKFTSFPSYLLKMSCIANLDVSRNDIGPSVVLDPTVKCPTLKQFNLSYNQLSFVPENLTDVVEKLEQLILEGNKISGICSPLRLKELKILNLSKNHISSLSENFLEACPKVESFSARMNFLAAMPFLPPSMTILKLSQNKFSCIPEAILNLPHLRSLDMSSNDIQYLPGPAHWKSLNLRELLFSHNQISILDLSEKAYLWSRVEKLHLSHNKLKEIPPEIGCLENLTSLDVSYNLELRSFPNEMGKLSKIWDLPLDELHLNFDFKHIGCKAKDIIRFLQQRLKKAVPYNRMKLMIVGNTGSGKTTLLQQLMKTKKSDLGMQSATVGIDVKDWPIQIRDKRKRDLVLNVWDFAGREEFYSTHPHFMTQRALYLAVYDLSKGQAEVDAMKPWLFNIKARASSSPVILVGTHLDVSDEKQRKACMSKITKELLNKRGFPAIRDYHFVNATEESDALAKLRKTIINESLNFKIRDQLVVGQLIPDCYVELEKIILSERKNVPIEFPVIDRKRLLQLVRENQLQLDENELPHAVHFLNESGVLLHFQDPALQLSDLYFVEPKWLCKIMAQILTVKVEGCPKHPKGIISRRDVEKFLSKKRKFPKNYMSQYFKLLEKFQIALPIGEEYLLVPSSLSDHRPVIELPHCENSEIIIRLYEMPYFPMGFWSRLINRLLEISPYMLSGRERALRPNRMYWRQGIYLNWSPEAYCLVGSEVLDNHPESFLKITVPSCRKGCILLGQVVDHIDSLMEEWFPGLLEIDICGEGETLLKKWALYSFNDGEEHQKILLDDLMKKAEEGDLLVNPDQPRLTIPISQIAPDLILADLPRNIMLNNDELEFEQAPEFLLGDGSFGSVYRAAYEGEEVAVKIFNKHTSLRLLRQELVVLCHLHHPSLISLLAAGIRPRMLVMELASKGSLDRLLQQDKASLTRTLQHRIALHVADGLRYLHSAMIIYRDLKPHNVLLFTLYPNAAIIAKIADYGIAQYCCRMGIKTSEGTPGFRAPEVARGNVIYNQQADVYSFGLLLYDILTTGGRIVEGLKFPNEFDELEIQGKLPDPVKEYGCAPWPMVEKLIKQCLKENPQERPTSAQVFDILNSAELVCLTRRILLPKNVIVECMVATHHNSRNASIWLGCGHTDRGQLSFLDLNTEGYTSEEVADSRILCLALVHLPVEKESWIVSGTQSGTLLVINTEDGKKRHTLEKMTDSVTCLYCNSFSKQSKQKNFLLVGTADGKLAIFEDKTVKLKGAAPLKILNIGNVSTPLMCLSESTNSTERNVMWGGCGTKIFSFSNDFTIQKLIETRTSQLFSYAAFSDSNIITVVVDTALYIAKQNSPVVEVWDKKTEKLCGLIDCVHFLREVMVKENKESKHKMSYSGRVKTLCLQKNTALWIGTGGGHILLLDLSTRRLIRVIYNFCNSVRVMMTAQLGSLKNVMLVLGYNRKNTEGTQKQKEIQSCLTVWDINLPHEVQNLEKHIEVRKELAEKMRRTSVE

The first experiment addresses T1, recombinant full length LRRK2 protein (LRRK2 Ser935 phosphorylation) (Homo sapiens, UniProt Q5S007).
T1 construct: A BacMam virus expressing full length recombinant LRRK2 was purchased from Invitrogen; host or cells: SH-SY5Y human neuroblastoma cells transduced with BacMam LRRK2 virus
Briefly: Recombinant cellular LRRK2 AlphaScreen assay. It is filed as cell-based. The conditions noted are these: SH-SY5Y cells over-expressing recombinant full length LRRK2, 60 minutes, read-out: pIC50 in the recombinant cellular LRRK2 AlphaScreen assay (converted). From the text: b. Recombinant Cellular LRRK2 AlphaScreen Assay
To determine the activity of compounds against LRRK2 kinase activity in cells, the observed LRRK2 kinase-dependent modulation of LRRK2 Ser 935 phosphorylation (Dzamko et al., 2010, Biochem. J. 430: 405-413) was utilized to develop a quantitative 384 well plate-based immunoassay of LRRK2 Ser935 phosphorylation in the human neuroblastoma cell line SH-SY5Y, engineered to over-express recombinant full length LRRK2 protein.
A BacMam virus expressing full length recombinant LRRK2 was purchased from Invitrogen and amplified by inoculation of SF-9 cells at MOI 0.3 for 4-5 days in Sf-900 III SFM medium supplemented with 3% fetal bovine serum. Infected cell cultures were then centrifuged at 2000 g for 20 minutes, viral supernatant titer determined by anti-gp64 plaque assay and stored at 4° C.
Affinity-purified anti-phospho LRRK2 Ser935 sheep polyclonal antibody (Dzamko et al., 2010, Biochem. J. 430: 405-413) was biotinylated by standard methods (PerkinElmer). Anti-LRRK2 rabbit polyclonal antibody was purchased from Novus Biologicals. AlphaScreen Protein A IgG Kit (including acceptor and donor beads) was purchased from Perkin Elmer.
SH-SY5Y cells were grown in DMEM/F12 medium with 10% dialysed fetal bovine serum and harvested by treatment with 0.5% trypsin-EDTA for 5 minutes at 37° C. followed by centrifugation at 1000 rpm for 4 minutes. The cell pellet was resuspended in Opti-MEM reduced serum media (Invitrogen) at 200,000 cells/ml and mixed with the BacMam LRRK2 virus at MOI=50. 50 μl cell solutions were then dispensed to each well of a 384-well plate and incubated at 37° C., 5% CO2 for 24 hours.
Serial dilutions of test compounds were prepared in Opti-MEM reduced serum media (Invitrogen) and 5.6 ul transferred from compound plate to cell assay plate to achieve a top final assay concentration of 10 uM. DMSO was used in certain wells as controls. Cells were incubated at 37° C., 5% CO2 for 60 minutes. The medium was then removed and cells lysed by addition of 20 ul cell lysis buffer (Cell Signaling Technology) and incubation at 4° C. for 20 minutes. 10 ul of antibody/acceptor bead mix [(1/1000 biotinylated-pS935 LRRK2 antibody, 1/1000 total-LRRK2 antibody, 1/100 Acceptor beads in AlphaScreen detection buffer (25 mM Hepes (pH 7.4), 0.5% Triton X-100, 1 mg/ml Dextran 500 and 0.1% BSA)] was then added to each well and plates incubated for 2 hours at ambient temperature in the dark. 10 μl of donor beads solution (1/33.3 donor beads in AlphaScreen detection buffer) was then added to each well. Following incubation for a further 2 hours at ambient temperature in the dark, plates were read on an EnVision™ plate reader at emission 520-620 nm with excitation 680 nm. Dose response curve data was based on sigmoidal dose-response model.
Regarding `Cc1nc(N2CC(C)OC(CO)C2)cc(-n2ncc3cc(C)c(C4CCN(C5COC5)CC4)cc32)n1` (single isomer, unassigned) [Example B-4, (6-Methyl-4-(2-methyl-6-(5-methyl-6-(1-(oxetan-3-yl)piperidin-4-yl)-1H-indazol-1-yl)pyrimidin-4-yl)morpholin-2-yl)methanol], the IC50 is 316 nM.

Regarding `Cc1nc(N2CCO[C@@H](CO)C2)cc(-n2ncc3cc(C)c(C4CCN(C5(C)COC5)CC4)cc32)n1` [Example A-1, (R)-(4-(2-Methyl-6-(5-methyl-6-(1-(3-methyloxetan-3-yl)piperidin-4-yl)-1H-indazol-1-yl)pyrimidin-4-yl)morpholin-2-yl)methanol], the IC50 was 200 nM.

On to `Cc1nc(N2CCOC(CCO)C2)cc(-n2ncc3cc(C)c(C4CCN(C5COC5)CC4)cc32)n1` (single isomer, unassigned) [Example B-8, 2-(4-(2-methyl-6-(5-methyl-6-(1-(oxetan-3-yl)piperidin-4-yl)-1H-indazol-1-yl)pyrimidin-4-yl)morpholin-2-yl)ethanol], for which the IC50 was 100 nM.

In the case of `Cc1nc(N2CC(C)OC(CO)C2)cc(-n2ncc3cc(C)c(C4CCN(C5COC5)CC4)cc32)n1` (single isomer, unassigned) [Example B-2, (6-Methyl-4-(2-methyl-6-(5-methyl-6-(1-(oxetan-3-yl)piperidin-4-yl)-1H-indazol-1-yl)pyrimidin-4-yl)morpholin-2-yl)methanol], the IC50 is 79.4 nM.

For `Cc1nc(N2CCOC(CCO)C2)cc(-n2ncc3cc(C)c(C4CCN(C5COC5)CC4)cc32)n1` (single isomer, unassigned) [Example B-7, 2-(4-(2-methyl-6-(5-methyl-6-(1-(oxetan-3-yl)piperidin-4-yl)-1H-indazol-1-yl)pyrimidin-4-yl)morpholin-2-yl)ethanol], the IC50 is 79.4 nM.

Consider `COc1nc(N2CCO[C@@H](CO)C2)cc(-n2ncc3cc(C)c(C4CCN(C5(C)COC5)CC4)cc32)n1` [Example A-4, (R)-(4-(2-Methoxy-6-(5-methyl-6-(l-(3-methyloxetan-3-yl)piperidin-4-yl)-1H-indazol-1-yl)pyrimidin-4-yl)morpholin-2-yl)methanol], for which the IC50 is no more than 31.6 nM.

For `COc1nc(N2CCO[C@H](CO)C2)cc(-n2ncc3cc(C)c(C4CCN(C5(C)COC5)CC4)cc32)n1` [Example A-3, (S)-(4-(2-Methoxy-6-(5-methyl-6-(1-(3-methyloxetan-3-yl)piperidin-4-yl)-1H-indazol-1-yl)pyrimidin-4-yl)morpholin-2-yl)methanol], the IC50 was ≤ 31.6 nM and 12.6 nM.

On to `Cc1nc(N2CC(C)OC(CO)C2)cc(-n2ncc3cc(C)c(C4CCN(C5COC5)CC4)cc32)n1` (single isomer, unassigned) [Example B-1, (6-Methyl-4-(2-methyl-6-(5-methyl-6-(1-(oxetan-3-yl)piperidin-4-yl)-1H-indazol-1-yl)pyrimidin-4-yl)morpholin-2-yl)methanol], for which the IC50 is 50.1 nM.

Consider `Cc1nc(N2CC(CO)OCC2C)cc(-n2ncc3cc(C)c(C4CCN(C5COC5)CC4)cc32)n1` (single isomer, unassigned) [Example B-6, (5-methyl-4-(2-methyl-6-(5-methyl-6-(1-(oxetan-3-yl)piperidin-4-yl)-1H-indazol-1-yl)pyrimidin-4-yl)morpholin-2-yl)methanol], for which the IC50 is 63.1 nM.

As for `Cc1nc(N2CC(C)OC(CO)C2)cc(-n2ncc3cc(C)c(C4CCN(C5COC5)CC4)cc32)n1` (single isomer, unassigned) [Example B-3, (6-Methyl-4-(2-methyl-6-(5-methyl-6-(1-(oxetan-3-yl)piperidin-4-yl)-1H-indazol-1-yl)pyrimidin-4-yl)morpholin-2-yl)methanol], the IC50 was 50.1 nM.

The target of the next experiment is T2, Full length G2019 human LRRK2 (Homo sapiens, UniProt Q5S007).
T2 construct: purified recombinant Full length Flag-LRRK2; made in house; host or cells: HEK293 6E cells transduced with BacMam virus (virus made in Sf9)
T2 sequence (Q5S007 with tags, fused parts or gaps R50H): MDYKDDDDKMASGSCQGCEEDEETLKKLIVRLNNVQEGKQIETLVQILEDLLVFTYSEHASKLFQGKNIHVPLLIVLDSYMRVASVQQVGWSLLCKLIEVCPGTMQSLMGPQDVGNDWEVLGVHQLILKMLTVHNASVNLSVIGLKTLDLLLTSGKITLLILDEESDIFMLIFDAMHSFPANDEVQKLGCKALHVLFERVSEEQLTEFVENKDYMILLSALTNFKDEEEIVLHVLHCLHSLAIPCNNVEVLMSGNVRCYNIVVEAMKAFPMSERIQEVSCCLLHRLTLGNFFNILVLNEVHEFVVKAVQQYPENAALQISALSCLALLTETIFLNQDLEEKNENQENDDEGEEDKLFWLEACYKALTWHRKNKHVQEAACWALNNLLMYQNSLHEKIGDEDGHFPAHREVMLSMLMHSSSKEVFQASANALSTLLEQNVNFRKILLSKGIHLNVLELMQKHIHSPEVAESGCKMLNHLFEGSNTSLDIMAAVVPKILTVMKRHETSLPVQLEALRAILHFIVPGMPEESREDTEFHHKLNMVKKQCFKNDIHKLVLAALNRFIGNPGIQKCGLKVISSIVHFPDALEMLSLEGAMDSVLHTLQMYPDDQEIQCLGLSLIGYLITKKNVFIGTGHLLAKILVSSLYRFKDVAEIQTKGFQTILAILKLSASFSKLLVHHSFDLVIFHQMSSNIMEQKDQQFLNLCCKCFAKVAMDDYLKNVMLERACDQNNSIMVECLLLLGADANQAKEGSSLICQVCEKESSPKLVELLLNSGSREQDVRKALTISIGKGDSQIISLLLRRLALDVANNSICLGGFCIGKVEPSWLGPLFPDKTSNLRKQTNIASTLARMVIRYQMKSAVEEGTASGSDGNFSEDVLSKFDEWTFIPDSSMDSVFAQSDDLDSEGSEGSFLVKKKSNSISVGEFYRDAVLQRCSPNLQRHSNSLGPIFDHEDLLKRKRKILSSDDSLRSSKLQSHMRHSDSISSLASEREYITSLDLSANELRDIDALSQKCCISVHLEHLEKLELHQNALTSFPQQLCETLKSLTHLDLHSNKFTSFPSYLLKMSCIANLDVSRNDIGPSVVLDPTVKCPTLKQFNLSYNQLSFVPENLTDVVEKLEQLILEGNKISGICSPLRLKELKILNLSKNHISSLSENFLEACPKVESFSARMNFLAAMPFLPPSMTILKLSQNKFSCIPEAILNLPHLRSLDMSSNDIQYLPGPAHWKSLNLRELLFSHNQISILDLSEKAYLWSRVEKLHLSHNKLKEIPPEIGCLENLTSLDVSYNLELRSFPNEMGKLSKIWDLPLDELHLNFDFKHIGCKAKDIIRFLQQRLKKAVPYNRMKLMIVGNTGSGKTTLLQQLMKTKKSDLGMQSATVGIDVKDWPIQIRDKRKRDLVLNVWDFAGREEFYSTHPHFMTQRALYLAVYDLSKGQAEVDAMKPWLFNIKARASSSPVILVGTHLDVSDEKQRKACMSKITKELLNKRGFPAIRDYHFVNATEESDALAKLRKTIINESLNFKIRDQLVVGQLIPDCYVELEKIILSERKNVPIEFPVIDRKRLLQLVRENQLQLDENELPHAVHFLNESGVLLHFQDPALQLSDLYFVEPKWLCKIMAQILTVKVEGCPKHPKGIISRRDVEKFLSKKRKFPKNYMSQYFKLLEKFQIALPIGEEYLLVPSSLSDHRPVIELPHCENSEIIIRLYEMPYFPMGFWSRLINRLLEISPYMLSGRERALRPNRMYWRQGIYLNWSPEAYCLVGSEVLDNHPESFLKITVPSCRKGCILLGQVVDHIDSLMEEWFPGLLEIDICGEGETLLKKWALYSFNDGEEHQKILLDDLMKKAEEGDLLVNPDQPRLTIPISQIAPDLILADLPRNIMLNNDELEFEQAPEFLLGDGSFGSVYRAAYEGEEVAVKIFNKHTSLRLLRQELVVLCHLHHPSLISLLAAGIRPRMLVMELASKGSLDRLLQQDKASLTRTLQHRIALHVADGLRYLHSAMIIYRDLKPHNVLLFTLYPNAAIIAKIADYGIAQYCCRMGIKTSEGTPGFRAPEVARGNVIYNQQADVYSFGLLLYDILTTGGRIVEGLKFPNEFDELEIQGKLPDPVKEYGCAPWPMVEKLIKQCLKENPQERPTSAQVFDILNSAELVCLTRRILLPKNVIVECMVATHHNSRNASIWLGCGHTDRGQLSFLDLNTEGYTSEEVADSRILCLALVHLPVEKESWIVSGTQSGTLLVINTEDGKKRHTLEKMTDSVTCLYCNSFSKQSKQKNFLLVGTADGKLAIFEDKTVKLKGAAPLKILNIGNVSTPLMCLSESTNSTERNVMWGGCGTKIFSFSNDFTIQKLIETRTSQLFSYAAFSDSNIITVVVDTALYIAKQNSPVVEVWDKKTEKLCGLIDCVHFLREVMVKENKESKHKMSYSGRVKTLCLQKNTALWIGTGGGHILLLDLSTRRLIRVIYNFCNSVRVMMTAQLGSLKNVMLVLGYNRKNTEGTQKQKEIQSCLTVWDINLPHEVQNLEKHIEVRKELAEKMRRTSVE
The experiment is described as follows: Full length G2019 human LRRK2 Inhibition Mass Spectrometry assay. Conditions: LRRKtide to phospho-LRRKtide conversion, RapidFire mass spectrometry; 25 nM LRRK2, 2 mM ATP; read-out: pIC50 in the full length G2019 human LRRK2 Inhibition Mass Spectrometry assay (converted). It is filed as biochemical. Here is the method: a. Full Length G2019 Human LRRK2 Inhibition Mass Spectrometry Assay
This assay for Leucine Rich Repeat Kinase 2 (LRRK2) inhibition is based on the direct measurement of the peptide ‘LRRKtide’ (LRRKtide: RLGRDKYKT*LRQIRQ and “*” refers to the site of phosphorylation.) and phosphorylated ‘LRRKtide’ using a high throughput RapidFire mass spectrometry assay. Inhibitors are compounds that reduce the conversion of LRRKtide to phospho-LRRKtide.
• 1) A 10 mM test compound was dissolved in 100% DMSO and serially diluted 1 in 4. 100 nL of this dilution series was then added to a 384 well, v bottom polypropylene plate, excluding columns 6 and 18. 100 nL of DMSO was added to columns 6 and 18 as controls wells. […] Test plates were then analysed on an Agilent RapidFire High Throughput solid phase extraction system coupled to AB Sciex API 4000 triple quadropole mass spectrometer with the following setting: RapidFire settings: • Sip Height=2 mm, Aspirate=500 ms, Load time=3000 ms, Elution time=3000 ms, Requilibration=500 ms. • Flow rates: pump 1=1.5 mL/min, pump 2 1.25 mL/min pump 3=0.8 mL/min Mass Spectrometer Settings: • LRRKtide Detection settings: Q1 mass 644.8 Da, Q3 mass 638.8, declustering potential 76 volts, collision energy 37 volts, CXP 34 volts. • Phospho-LRRKtide Detection settings: Q1 mass 671.4 Da, Q3 mass 638.8, Declustering potential 76 volts, Collision energy 37 volts, CXP 34 volts. • A C4 cartridge was used and running buffers were: A (aqueous) 0.1% formic acid in water B (organic) 0.1% formic acid, 80% acetonitrile, 20% water. • Collision gas: 12, Curtain gas: 25, Ion Source gas (1): 60, Ion Source gas (2): 60, Ion Spray Voltage: 5500, Temperature: 600, Interface Heater: ON. • Resolution Q1: low, Resolution Q3: low. • 6) Data was analysed using ActivityBase software (IDBS). A percent conversion from LRRKtide to Phospho-LRRKtide was calculated using the following formula: […]
Turning to `Cc1nc(N2CCO[C@@H](CO)C2)cc(-n2ncc3cc(C)c(C4CCN(C5(C)COC5)CC4)cc32)n1` [Example A-1, (R)-(4-(2-Methyl-6-(5-methyl-6-(1-(3-methyloxetan-3-yl)piperidin-4-yl)-1H-indazol-1-yl)pyrimidin-4-yl)morpholin-2-yl)methanol], the IC50 was no more than 100 nM.

On to `Cc1nc(N2CCO[C@H](CO)C2)cc(-n2ncc3cc(C)c(C4CCN(C5(C)COC5)CC4)cc32)n1` [Example A-2, (S)-(4-(2-Methyl-6-(5-methyl-6-(1-(3-methyloxetan-3-yl)piperidin-4-yl)-1H-indazol-1-yl)pyrimidin-4-yl)morpholin-2-yl)methanol], for which the IC50 is no more than 100 nM.

`Cc1nc(N2CCOC(CCO)C2)cc(-n2ncc3cc(C)c(C4CCN(C5COC5)CC4)cc32)n1` (single isomer, unassigned) [Example B-7, 2-(4-(2-methyl-6-(5-methyl-6-(1-(oxetan-3-yl)piperidin-4-yl)-1H-indazol-1-yl)pyrimidin-4-yl)morpholin-2-yl)ethanol]: the IC50 was no more than 100 nM.
